# System: Dirofilaria immitis L1 larvae
# Assay: Screening against microfilaria (L1 larvae) of Dirofilaria immitis, survival/motility
# Format: in vivo
# Details: 72 h, read-out: Ranked D. immitis L1 MED Activity
# Procedure: Example 44. Screening of Compounds Against Microfilaria of Dirofilaria immitis
# To evaluate the efficacy of compounds of the disclosure against Dirofilaria immitis, L1 stage larvae were exposed to various concentrations of the compounds to determine survival or paralysis of the larvae. Results are reported as the minimum effective dose (MED), defined as the concentration required to eliminate motility.
# To perform the assay, microfilaria of Dirofilaria immitis were added to the wells of a microtiter plate containing buffer and the test compounds in DMSO. Microfilaria exposed to DMSO alone served as controls. An assessment was conducted at 72 hours to determine survival of the microfilaria.
row,SMILES,minimal effective concentration [µM]
1,"CN(CC1CN(S(C)(=O)=O)CCO1)c1cc(N2CCSC3(CCCCC3)C2)nc(C(F)(F)F)n1 (centres unmarked) [Compound 28, N-methyl-N-((4-(methylsulfonyl)morpholin-2-yl)methyl)-6-(1-thia-4-azaspiro[5.5]undecan-4-yl)-2-(trifluoromethyl)pyrimidin-4-amine]",< 10000
2,"COC(=O)N1CCCC(CN(C)c2cc(N3CCCC4(CCCCC4)C3)nc(C(F)(F)F)n2)C1 (centres unmarked) [Compound 36, methyl 3-(((6-(2-azaspiro[5.5]undecan-2-yl)-2-(trifluoromethyl)pyrimidin-4-yl)(methyl)amino)methyl)piperidine-1-carboxylate]",> 100000
3,"CN(CC1CN(S(C)(=O)=O)CCS1)c1cc(N2CCSC3(CCCCC3)C2)nc(C(F)(F)F)n1 (centres unmarked) [Compound 30, N-methyl-N-((4-(methylsulfonyl)thiomorpholin-2-yl)methyl)-6-(1-thia-4-azaspiro[5.5]undecan-4-yl)-2-(trifluoromethyl)pyrimidin-4-amine]",< 10000
4,"CS(=O)(=O)N1CCOC(CNc2cc(N3CCCC4(CCCCC4)C3)nc(C(F)(F)F)n2)C1 (centres unmarked) [Compound 15, N-((4-(methylsulfonyl)morpholin-2-yl)methyl)-6-(2-azaspiro[5.5]undecan-2-yl)-2-(trifluoromethyl)pyrimidin-4-amine]",< 10000
5,"CN(CC1CN(S(C)(=O)=O)CCC1(F)F)c1cc(N2CCCC3(CCCCC3)C2)nc(C(F)(F)F)n1 (centres unmarked) [Compound 41, N-((4,4-difluoro-1-(methylsulfonyl)piperidin-3-yl)methyl)-N-methyl-6-(2-azaspiro[5.5]undecan-2-yl)-2-(trifluoromethyl)pyrimidin-4-amine]",< 30000
6,"CN(c1cc(N2CCCC3(CCCCC3)C2)nc(C(F)(F)F)n1)C1CC2(CC(NS(C)(=O)=O)C2)C1 (centres unmarked) [Compound 7, N-(6-((6-(2-azaspiro[5.5]undecan-2-yl)-2-(trifluoromethyl)pyrimidin-4-yl)(methyl)amino)spiro[3.3]heptan-2-yl)methanesulfonamide]",> 100000
7,"CN(Cc1ccc(S(=O)(=O)N(C)C)cc1)c1cc(N2CCCC3(CCCCC3)C2)nc(C(F)(F)F)n1 [Compound 5, 4-(((6-(2-azaspiro[5.5]undecan-2-yl)-2-(trifluoromethyl)pyrimidin-4-yl)(methyl)amino)methyl)-N,N-dimethylbenzenesulfonamide]",> 100000
8,"CN(CC1CN(S(C)(=O)=O)CCO1)c1cc(N2CCCC3(CCC(F)(F)CC3)C2)nc(C(F)(F)F)n1 (centres unmarked) [Compound 40, 6-(9,9-difluoro-2-azaspiro[5.5]undecan-2-yl)-N-methyl-N-((4-(methylsulfonyl)morpholin-2-yl)methyl)-2-(trifluoromethyl)pyrimidin-4-amine]",< 30000
9,"CN(CC1CN(S(C)(=O)=O)CCS1(=O)=O)c1cc(N2CCCC3(CCCCC3)C2)nc(C(F)(F)F)n1 (centres unmarked) [Compound 42, 2-(((6-(2-azaspiro[5.5]undecan-2-yl)-2-(trifluoromethyl)pyrimidin-4-yl)(methyl)amino)methyl)-4-(methylsulfonyl)thiomorpholine 1,1-dioxide]",> 100000
10,"CN(CC1CCCN(S(C)(=O)=O)C1)c1cc(N2CCCC3(CCCCC3)C2)nc(C(F)(F)F)n1 (centres unmarked) [Compound 14, N-methyl-N-((1-(methylsulfonyl)piperidin-3-yl)methyl)-6-(2-azaspiro[5.5]undecan-2-yl)-2-(trifluoromethyl)pyrimidin-4-amine]",> 100000
11,"CN(CC1CN(S(C)(=O)=O)CCO1)c1cc(N2CCC(F)(F)C3(CCCCC3)C2)nc(C(F)(F)F)n1 (centres unmarked) [Compound 23, 6-(5,5-difluoro-2-azaspiro[5.5]undecan-2-yl)-N-methyl-N-((4-(methylsulfonyl)morpholin-2-yl)methyl)-2-(trifluoromethyl)pyrimidin-4-amine]",< 10000

# — patent US20260365642A1, “ANTIPARASITIC COMPOUNDS” (Animol Discovery, Inc., priority 2023, published 2026)
